This note sets out measurements from patent US9879050B2, “Substituted urea depsipeptide analogs as activators of the CLPP endopeptidase” (priority 2013, dated 2018).

In brackets after ≈: the same amount, converted by molar mass. Where two headings read alike, the source gives them in different places. *1 amine or outer side, *2 acyl side, *3 side chain or, on linkers, in order; H or OH if unused. Where a SMILES comes first, the peptide text is derived from it. Bridges are numbered along the chain shown (N, C = ends). [ ]: non-standard residue; d: D form. The star is where a group is joined. Phe(3,5-F2) = N[C@@H](Cc1cc(F)cc(F)c1)C(=O)O; NHPh(4-CF3) = FC(F)(F)c1ccc(N*)cc1; Heptenoyl(2E) = CCCC/C=C/C(=O)*; aThr = C[C@H](O)[C@H](N)C(=O)O; Pip = O=C(O)[C@@H]1CCCCN1; CO = O=C([*:1])[*:2] Some results are limits rather than exact numbers.

Usually half-life stands for the time needed for the level to fall by half in the phase considered. A low value points to fast loss. As a reminder, the IC50 is the concentration at which inhibition is half-maximal.

Data set [1] deals with B. subtilis ATCC 23857. Description: Minimal inhibitory concentration, microbroth dilution. The class given is cell-based. The note with it: Bacillus subtilis, ATCC23857, read-out: Minimal Inhibitory Concentration B. subtilis ATCC 23857. The gist of the method: (§1)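 Following CLSI M7-A7 microbroth dilution, twofold serial dilutions of compound (top final concentration 200 μM) were combined with an equal volume of broth inoculum at about 10^5 cfu/mL. Plates were incubated aerobically at 37 °C overnight, and the MIC was the lowest concentration preventing visible growth.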

For data set [2], the system named is S. aureus ATCC 29213. Described as above. The class given is cell-based. Conditions: Staphylococcus aureus, ATCC29213, read-out: Minimal Inhibitory Concentration S. aureus ATCC 29213. In outline:
as §1

The subject of data set [3] is E. faecails ATCC 33186. Described as above. The class given is cell-based. The note with it: Enterococcus faecalis, ATCC33186, read-out: Minimal Inhibitory Concentration E. faecails ATCC 33186. The gist of the method:
as §1

The nature of data set [4]: Microsomal metabolic stability determination. The note with it: CD-1, mouse, microsomes, pH 7.4. How it is done:
Compounds were initially prepared by dissolving them into DMSO at a final concentration of 10 mM. NADPH regenerating solutions A and B and mouse liver microsomes (CD-1) were obtained from BD Gentest (Woburn, Mass.). Ninety-six well deep well plates were obtained from MidWest Scientific Inc (Valley Park, Mo.).
Sample preparation for microsomal stability was modified from methods of Di, L., et al., Int J Pharm. 2005 Jun. 13; 297(1-2): 110-9. A set of incubation times of 0, 15, 30, 60, 120, and 240 minutes were used. Mouse liver microsomal solutions were prepared by adding 58 μL of concentrated human or mouse liver microsomes (20 mg/mL protein concentration) to 1.756 mL of 0.1 M potassium phosphate buffer (pH 7.4) and 5 μL of 0.5 M EDTA to make a 0.6381 mg/mL (protein) microsomal solution. NADPH regenerating agent contained 113 μL of NADPH A, 23 μL of NADPH B, and 315 μL of 0.1 M potassium phosphate buffer (pH 7.4). The diluted test compound solutions (2 μL) were each added directly to a 1.79 mL of liver microsomal solution. This solution was mixed and 90 μL was transferred to 6 time points plates (each in triplicate wells). For the time 0 plate, 225 μL of cold acetonitrile with internal standard ([…] warfarin) was added to each well, followed by addition of NADPH regenerating agent (22.5 μL) and no incubation. For other five time points' plate, NADPH regenerating agent (22.5 μL) was added to each well to initiate the reaction. The plates were incubated at 37° C. for the required time, followed by quenching of the reaction by adding 225 μL of cold acetonitrile with internal standard (4 μg/ml warfarin). All of the plates were sealed and mixed well at 600 rpm for 10 minutes followed by centrifugation at 4000 rpm for 20 minutes. The supernatants (120 μL) were transferred to analytical plates for analysis by LCMS. LCMS conditions were described in the materials and instrumentation section above. The metabolic stability is evaluated via the half-life from least-squares fit of the multiple time points based on first-order kinetics.

Data set [5] in a line: Cytotoxicity assay, CellTiter-Glo cell viability. The class given is cell-based. The note with it: African green monkey; Vero cells, 72 hours; read-out: Cytotoxicity IC50. In outline: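 Vero cells seeded overnight at 37 °C in DMEM with 10% FBS, then exposed to serial dilutions of compound for 72 h. Viability read by CellTiter-Glo luminescence; IC50 from duplicates, given as the range of two independent experiments.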
Background: In ATP-based viability assays light output follows the ATP content of the culture.

Data set [6] deals with S. aureus USA 300 ΔClpP. Description: Minimal inhibitory concentration, microbroth dilution. The class given is cell-based, Staphylococcus aureus. The note with it: ClpP inactivated strain. In outline:
as §1
On the technique in general: Broth dilution looks for growth in wells or tubes with falling amounts of substance.

For data set [7], the system named is S. pneumoniae R6. The description is as above. The class given is cell-based. In outline: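 Twofold serial dilutions in broth per CLSI M7-A7 microbroth dilution, incubated aerobically overnight at 37° C. MIC read visually as lowest concentration preventing bacterial growth.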
Setting [8] is: Streptococcus pneumoniae, R6, read-out: Minimal Inhibitory Concentration S. pneumoniae R6.

Turning to `Cc1ccc(NC(=O)N[C@@H](Cc2cc(F)cc(F)c2)C(=O)N[C@@H]2C(=O)N3CCC[C@H]3C(=O)N3CCCC[C@H]3C(=O)N[C@@H](C)C(=O)N3CCC[C@H]3C(=O)O[C@H]2C)cc1` [Compound 15, (S)-3-(3,5-Difluorophenyl)-N-((6S,8aS,14aS,20S,21 S,23aS)-6,21-Dimethyl-5,8,14,19,23-Pentaoxooctadecahydro-1H,5H,14H,19H-Pyrido[2,1-I]Dipyrrolo[2,1-C:2′,1′-L][1]Oxa[4,7,10,13]Tetraazacyclohexadecin-20-Yl)-2-(3-(P-Tolyl)Ureido)Propanamide], the MIC is below 0.1 µM in data set [1], 0.6 µM (≈ 0.476 µg/mL) in data set [2], 0.3 µM (≈ 0.238 µg/mL) in data set [3] and 0.3 µM (≈ 0.238 µg/mL) in data set [7] (setting [8]). Besides, in data set [4], the half-life was 18 min. The IC50 at 72 h in data set [5] was found to be 39.7 ± 6.6 µM. The “Minimal Inhibitory Concentration S. aureus USA 300 ΔClpP” value in data set [6] was 100 µM.

In the case of `Cc1ccc(NC(=O)N[C@@H](Cc2cc(F)cc(F)c2)C(=O)N[C@@H]2C(=O)N3CCC[C@H]3C(=O)N3CCCC[C@H]3C(=O)N[C@@H](C)C(=O)N3C[C@@H](C)C[C@H]3C(=O)O[C@H]2C)cc1` [Compound 18, (S)-3-(3,5-Difluorophenyl)-2-(3-(P-Tolyl)Ureido)-N-((2R,6S,8aS,14aS,20S,21S,23aS)-2,6,21-Trimethyl-5,8,14,19,23-Pentaoxooctadecahydro-1H,5H,14H,19H-Pyrido[2,1-I]Dipyrrolo[2,1-C:2′,1′-L][1]Oxa[4,7,10,13]Tetraazacyclohexadecin-20-Yl)Propanamide], the MIC in data set [1] is below 0.1 µM; in data set [2], 0.1 µM (≈ 0.0808 µg/mL); in data set [3], 0.8 µM (≈ 0.646 µg/mL); in data set [7] (setting [8]), below 0.1 µM. The same molecule gave a half-life in data set [4] of 60 ± 6 min. For the same molecule, in data set [5], the IC50 at 72 h worked out at 26.7 ± 3.6 µM. In addition, the “Minimal Inhibitory Concentration S. aureus USA 300 ΔClpP” value in data set [6] was 100 µM.

Consider `C[C@@H]1NC(=O)[C@@H]2CCCCN2C(=O)[C@@H]2CCCN2C(=O)[C@@H](NC(=O)[C@H](Cc2cc(F)cc(F)c2)NC(=O)Nc2ccc(C(F)(F)F)cc2)[C@H](C)OC(=O)[C@@H]2CCCN2C1=O` [Compound 16, (S)-3-(3,5-Difluorophenyl)-N-((6S,8aS,14aS,20S,21 S,23aS)-6,21-Dimethyl-5,8,14,19,23-Pentaoxooctadecahydro-1H,5H,14H,19H-Pyrido[2,1-I]Dipyrrolo[2,1-C:2′,1′-L][1]Oxa[4,7,10,13]Tetraazacyclohexadecin-20-Yl)-2-(3-(4-(Trifluoromethyl)Phenyl)Ureido)Propanamide] ({NHPh(4-CF3)-CO}-[Phe(3,5-F2)][aThr]P[Pip]AP; ester 2-C), for which the MIC in data set [1] was 0.4 µM (≈ 0.339 µg/mL); in data set [2], 0.4 µM (≈ 0.339 µg/mL); in data set [3] it was below 0.1 µM; in data set [7] (setting [8]), 0.8 µM (≈ 0.678 µg/mL). Moreover, the half-life in data set [4] is 42 min. Moreover, the IC50 at 72 h in data set [5] amounted to 74.3 ± 9 µM. The “Minimal Inhibitory Concentration S. aureus USA 300 ΔClpP” value in data set [6] worked out at 3.1 µM.

In the case of `Cc1ccc(NC(=O)N[C@@H](Cc2ccccc2)C(=O)N[C@H]2COC(=O)[C@@H]3C[C@@H](C)CN3C(=O)[C@H](C)NC(=O)[C@@H]3CCCCN3C(=O)[C@@H]3CCCN3C2=O)cc1` [Compound 23, (S)—N-((2R,6S,8aS,14aS,20S,23aS)-2,6-Dimethyl-5,8,14,19,23-Pentaoxooctadecahydro-1H,5H,14H,19H-Pyrido[2,1-I]Dipyrrolo[2,1-C:2′,1′-L][1]Oxa[4,7,10,13]Tetraazacyclohexadecin-20-Yl)-3-Phenyl-2-(3-(P-Tolyl)Ureido)Propanamide], the MIC in data set [1] was below 0.2 µM; in data set [2] it was 0.4 µM (≈ 0.303 µg/mL); in data set [3] it was below 0.2 µM; in data set [7] (setting [8]) it was below 0.2 µM. In addition, the half-life in data set [4] was 178 ± 18 min. In addition, the half-maximal inhibitory concentration (IC50) at 72 h in data set [5] is 74 ± 7.7 µM.

Regarding `CCCC/C=C/C(=O)N[C@@H](Cc1cc(F)cc(F)c1)C(=O)N[C@@H]1C(=O)N2CCC[C@H]2C(=O)N2CCCC[C@H]2C(=O)N[C@@H](C)C(=O)N2CCC[C@H]2C(=O)O[C@H]1C` [ADEP 2719, reference compound] ({Heptenoyl(2E)}-[Phe(3,5-F2)][aThr]P[Pip]AP; ester 2-C), in data set [4], the half-life was 6 min. Further, the IC50 at 72 h in data set [5] is 37.7 ± 3.4 µM. Moreover, the “Minimal Inhibitory Concentration S. aureus USA 300 ΔClpP” value in data set [6] turned out to be 500 µM. Further, in data set [7] (Streptococcus pneumoniae, R6; read-out: Minimal Inhibitory Concentration S. pneumoniae R6), the MIC is below 0.2 µM.

In the case of `C[C@H]1C[C@H]2C(=O)O[C@@H](C)[C@H](NC(=O)[C@H](Cc3cc(F)cc(F)c3)NC(=O)Nc3ccc(C(F)(F)F)cc3)C(=O)N3CCC[C@H]3C(=O)N3CCCC[C@H]3C(=O)N[C@@H](C)C(=O)N2C1` [Compound 19, (S)-3-(3,5-Difluorophenyl)-2-(3-(4-(Trifluoromethyl)Phenyl)Ureido)-N-((2R,6S,8aS,14aS,20S,21S,23aS)-2,6,21-Trimethyl-5,8,14,19,23-Pentaoxooctadecahydro-1H,5H,14H,19H-Pyrido[2,1-I]Dipyrrolo[2,1-C:2′,1′-L][1]Oxa[4,7,10,13]Tetraazacyclohexadecin-20-Yl)Propanamide], the MIC in data set [1] is below 0.1 µM; in data set [2] it was 0.1 µM (≈ 0.0862 µg/mL); in data set [3], 0.39 µM (≈ 0.336 µg/mL); in data set [7] (setting [8]), 0.8 µM (≈ 0.689 µg/mL). The molecule also showed a half-life in data set [4] of 30 min. The IC50 at 72 h in data set [5] amounted to 36.8 ± 4.1 µM. Also, the “Minimal Inhibitory Concentration S. aureus USA 300 ΔClpP” value in data set [6] came out at 6.2 µM.
